Test results from patent publication US20030203966A1, “Nitromethylthiobenzene derivatives as aldose reductase inhihibitors” (priority 1996, published 2003).
Counter-ions that a name gives are not always drawn.

melting point | Structure (SMILES)
189 to 190 °C | Cc1cc(NS(=O)(=O)Cc2ccccc2[N+](=O)[O-])cc(C)c1S(=O)(=O)C[N+](=O)[O-]
235 to 238 °C | Cc1cc(NC(=O)CCCCCCC(=O)Nc2cc(C)c(S(=O)(=O)C[N+](=O)[O-])c(C)c2)cc(C)c1S(=O)(=O)C[N+](=O)[O-]
207 to 210 °C | Cc1cc(NC(=O)CCCC(=O)Nc2cc(C)c(S(=O)(=O)C[N+](=O)[O-])c(C)c2)cc(C)c1S(=O)(=O)C[N+](=O)[O-]
191 to 192 °C | Cc1cc(NS(=O)(=O)c2cccc(S(=O)(=O)Nc3cc(C)c(S(=O)(=O)C[N+](=O)[O-])c(C)c3)c2)cc(C)c1S(=O)(=O)C[N+](=O)[O-]
246 to 248 °C | Cc1cc(NC(=O)C(=O)Nc2cc(C)c(S(=O)(=O)C[N+](=O)[O-])c(C)c2)cc(C)c1S(=O)(=O)C[N+](=O)[O-]
203 to 205 °C | O=C(CCCC(=O)Nc1ccc(S(=O)(=O)C[N+](=O)[O-])cc1)Nc1ccc(S(=O)(=O)C[N+](=O)[O-])cc1
226 to 228 °C | Cc1cc(N(C(=O)CCC(N)=O)c2cc(C)c(S(=O)(=O)C[N+](=O)[O-])c(C)c2)cc(C)c1S(=O)(=O)C[N+](=O)[O-]
197 to 199 °C | Cc1cc(NC(=O)CC(=O)Nc2cc(C)c(S(=O)(=O)C[N+](=O)[O-])c(C)c2)cc(C)c1S(=O)(=O)C[N+](=O)[O-]
224 to 226 °C | Cc1cc(NC(=O)Nc2cc(C)c(S(=O)(=O)C[N+](=O)[O-])c(C)c2)cc(C)c1S(=O)(=O)C[N+](=O)[O-]
124 to 130 °C | Cc1cc(NS(=O)(=O)Cc2cccc(CS(=O)(=O)Nc3cc(C)c(S(=O)(=O)C[N+](=O)[O-])c(C)c3)c2)cc(C)c1S(=O)(=O)C[N+](=O)[O-]
167 to 169 °C | Cc1cc(NS(=O)(=O)c2cc(F)c(Br)cc2F)cc(C)c1S(=O)(=O)C[N+](=O)[O-] (as salt: acetate) [Example 27, 4-Bromo-2,5-difluoro-N-[3,5-dimethyl-4-[(nitromethyl)-sulphonyl]phenyl]benzenesulphonamide]
138 to 140 °C | Cc1cc(NS(C)(=O)=O)cc(C)c1S(=O)(=O)C[N+](=O)[O-] (as salt: acetate) [Example 40, N-[3,5-Dimethyl-4-[(nitromethyl)sulphonyl]phenyl]-methanesulphonamide]
146 to 148 °C | Cc1cc(NS(=O)(=O)c2ccccc2)cc(C)c1SC[N+](=O)[O-] [Example 3, N-[3,5-Dimethyl-4-[(nitromethyl)thio]phenyl]benzenesulphonamide]
> 50 °C (dec.) | Cc1cc(NS(=O)(=O)c2ccccc2)cc(C)c1[S+]([O-])C[N+](=O)[O-] (stereo not shown) [Example 4, N-[3,5-Dimethyl-4-[(nitromethyl)sulphinyl]phenyl]-benzenesulphonamide]
160 to 162 °C | Cc1cc(NS(=O)(=O)c2ccc(Cl)cc2)cc(C)c1S(=O)(=O)C[N+](=O)[O-] [Example 5, 4-Chloro-N-[3,5-dimethyl-4-[(nitromethyl)sulphonyl]-phenyl]benzenesulphonamide]
179 to 181 °C | Cc1cccc(S(=O)(=O)Nc2cc(C)c(S(=O)(=O)C[N+](=O)[O-])c(C)c2)c1 [Example 6, N-[3,5-Dimethyl-4-[(nitromethyl)sulphonyl]phenyl]-3-methylbenzenesulphonamide]

melting point | Structure (SMILES)
163 to 165 °C | Cc1ccc(S(=O)(=O)Nc2cc(C)c(S(=O)(=O)C[N+](=O)[O-])c(C)c2)cc1 [Example 7, N-[3,5-Dimethyl-4-[(nitromethyl)sulphonyl]phenyl]-4-methylbenzenesulphonamide]
154 to 156 °C | Cc1cc(NS(=O)(=O)c2ccc(F)cc2F)cc(C)c1S(=O)(=O)C[N+](=O)[O-] [Example 8, 2,4-Difluoro-N-[3,5-dimethyl-4-[(nitromethyl)sulphonyl]phenyl]benzenesulphonamide]
146 to 148 °C | Cc1cc(NS(=O)(=O)c2cccc(C(F)(F)F)c2)cc(C)c1S(=O)(=O)C[N+](=O)[O-] [Example 9, N-[3,5-Dimethyl-4-[(nitromethyl)sulphonyl]phenyl]-3-(trifluoromethyl)benzenesulphonamide]
208 to 215 °C | Cc1cc(NS(=O)(=O)c2ccc3ccccc3c2)cc(C)c1S(=O)(=O)C[N+](=O)[O-] [Example 15, N-[3,5-Dimethyl-4-[(nitromethyl)sulphonyl]phenyl]-2-naphthalenesulphonamide]
140 to 142 °C | Cc1cc(NS(=O)(=O)c2ccccc2Br)cc(C)c1S(=O)(=O)C[N+](=O)[O-] [Example 17, 2-Bromo-N-[3,5-dimethyl-4-[(nitromethyl)sulphonyl]-phenyl]benzenesulphonamide]
192 to 194 °C | Cc1cc(NS(=O)(=O)c2ccc(S(C)(=O)=O)cc2)cc(C)c1S(=O)(=O)C[N+](=O)[O-] [Example 18, N-[3,5-Dimethyl-4-[(nitromethyl)sulphonyl]phenyl]-4-(methylsulphonyl)benzenesulphonamide]
174 to 176 °C | Cc1cc(NS(=O)(=O)/C=C/c2ccccc2)cc(C)c1S(=O)(=O)C[N+](=O)[O-] [Example 19, (E)-N-[3,5-Dimethyl-4-[(nitromethyl)sulphonyl]phenyl]-styrenesulphonamide]
194 to 196 °C | Cc1ccccc1S(=O)(=O)NC(=O)Nc1cc(C)c(S(=O)(=O)C[N+](=O)[O-])c(C)c1 [Example 20, 1-[3,5-Dimethyl-4-[(nitromethyl)sulphonyl]phenyl]-3-[(2-methylphenyl)sulphonyl]urea]
150 to 155 °C | Cc1ccc(S(=O)(=O)NC(=O)Nc2cc(C)c(S(=O)(=O)C[N+](=O)[O-])c(C)c2)cc1 [Example 21, 1-[3,5-Dimethyl-4-[(nitromethyl)sulphonyl]phenyl]-3-[(4-methylphenyl)sulphonyl]urea]
209 to 210 °C | CC(=O)Nc1ccc(S(=O)(=O)Nc2cc(C)c(S(=O)(=O)C[N+](=O)[O-])c(C)c2)cc1 [Example 22, N-[4-[3,5-Dimethyl-4-[(nitromethyl)sulphonyl]phenylsulphamoyl]phenyl]acetamide]
168 to 170 °C | Cc1cc(NS(=O)(=O)CC(F)(F)F)cc(C)c1S(=O)(=O)C[N+](=O)[O-] [Example 23, N-[3,5-Dimethyl-4-[(nitromethyl)sulphonyl]phenyl]-2,2,2-trifluoroethanesulphonamide]
132 to 134 °C | Cc1cc(NS(=O)(=O)c2cc(F)ccc2F)cc(C)c1S(=O)(=O)C[N+](=O)[O-] [Example 28, 2,5-Difluoro-N-[3,5-dimethyl-4-[(nitromethyl)sulphonyl]phenyl]benzenesulphonamide]
170 to 172 °C | Cc1cc(NS(=O)(=O)c2cccc3ccccc23)cc(C)c1S(=O)(=O)C[N+](=O)[O-] [Example 31, N-[3,5-Dimethyl-4-[(nitromethyl)sulphonyl]phenyl]-1-naphthalenesulphonamide]
158 to 159 °C | Cc1cc(NS(=O)(=O)c2cccs2)cc(C)c1S(=O)(=O)C[N+](=O)[O-] [Example 32, N-[3,5-Dimethyl-4-[(nitromethyl)sulphonyl]phenyl]-2-thiophenesulphonamide]
112 to 114 °C | Cc1cc(NS(=O)(=O)c2ccccc2)cc(C)c1S(=O)(=O)C(Cl)(Cl)[N+](=O)[O-] [Example 33, N-[4-[(Dichloronitromethyl)sulphonyl]-3,5-dimethylphenyl]benzenesulphonamide]
